Measured values from patent publication US12195804B2, “Treatment of squamous cell carcinoma” (Board of Regents, The University of Texas System, priority 2018, dated 2025).

How the values were obtained:
PJ34 cells = experiment: CellTiter-Glo viability, PJ34 parental and NOTCH1 KO; format: cell-based, human; conditions: 72 hours
Protocol: (§1) FIGS. 9A-9D: NOTCH1 knockout (KO) sensitizes two NOTCH1^WT head and neck squamous cell carcinoma (HNSCC) cell lines to PI3K/mTOR pathway inhibition in vitro. Two NOTCH1^WT HNSCC cell lines (PJ34 and UMSCC49 [UM49]), parental cell lines, and NOTCH1 KO cell lines were treated with PI3K/mTOR pathway inhibitors. FIG. 9A. The CellTiter-Glo assay was used to assess the viability of cells treated for 72 hours with the indicated concentrations of GSK2126458 (GSK212). FIG. 9B. Western blot analysis of apoptosis markers, NOTCH1, and NOTCH intracellular domain (NICD) was performed after treatment with the indicated concentrations of GSK212 for 48 hours. FIG. 9C. Apoptosis in cells treated with 50 nM GSK212 or 200 nM BEZ235 for 48 hours was measured using an Annexin V/propidium iodide assay. Values are the means±standard deviations of three independent experiments. *p<0.05, unpaired two-tailed Student t-test. FIG. 9D. […] Colony areas as percentages of the control were measured using ImageJ. […]
(§2) Cell viability assay. […] Inhibitory concentration (ICs) and area under the curve (AUC) values were calculated using the drexplorer R package with a best-fit dose-response model (Zumsteg et al., 2016). The combination indices were calculated using the Chou-Talalay method (Cal et al., 2017) in CalcuSyn (Biosoft, Cambridge, UK). […]

UMSCC49 cells = experiment: CellTiter-Glo viability, UMSCC49 parental and NOTCH1 KO; format: cell-based, human; conditions: 72 hours
Protocol: as §1, §2

[1] = tested on: HN31 and UM22A orthotopic xenografts; experiment: Orthotopic tongue xenograft models of NOTCH1MUT HNSCC; format: in vivo, athymic nude mice
Protocol: FIGS. 8A-8D: PI3K/mTOR pathway inhibitors cause apoptosis and reduce tumor size in NOTCH1^MUT head and neck squamous cell carcinoma (HNSCC) in vivo. FIGS. 8A and 8B. The NOTCH1^MUT cell lines HN31 (FIG. 8A) and UMSCC22A (UM22A; FIG. 8B) were injected subcutaneously (SQ) into athymic nude mice. After tumors reached 150 mm^3, the mice were randomized to receive either vehicle control (2-hydroxypropyl-β-cyclodextrin) or 1 mg/kg GSK2126458 (GSK212) by oral gavage daily for 28 days. Tumor sizes were measured and tumor volumes were calculated at the indicated times, and the percent change in tumor volume at the end of therapy was calculated using the formula (final tumor volume−initial tumor volume/initial tumor volume)×100%. The percentages of TUNEL-positive cells were calculated from image quantification at 40× magnification. FIGS. 8C and 8D. HN31 (FIG. 8C) and UM22A (FIG. 8D) were implanted orthotopically (OT) into the anterior tongues of athymic nude mice. […] Tumor sizes were measured, and tumor volumes and percent changes in tumor volumes were calculated as above. […] The percentages of TUNEL-positive cells were calculated as described above. Data are means±standard deviations from 5 mice per group; p values were calculated using an unpaired t-test with the Welch correction. […]

COc1ncc(-c2ccc3nccc(-c4ccnnc4)c3c2)cc1NS(=O)(=O)c1ccc(F)cc1F [GSK2126458]
IC70 (PJ34 cells; PJ34 NOTCH1 KO): 24 nM | IC70 (PJ34 cells; PJ34 parental): 100 nM | IC70 (UMSCC49 cells; UMSCC49 NOTCH1 KO): 360 nM | IC70 (UMSCC49 cells; UMSCC49 parental): 1480 nM | tumor size compared with vehicle ([1]; 3 mg/kg oral gavage daily 28 days): significantly reduced tumor size | apoptosis in tumors (TUNEL staining) ([1]; 3 mg/kg oral gavage, end of treatment): underwent apoptosis
